Laboratory results: patent publication US10787462B2, “Heterocyclic compound” (TAKEDA PHARMACEUTICAL COMPANY LIMITED, priority 2015, dated 2020)

Target: T1, human RIPK1 (1-375) (Homo sapiens, UniProt Q13546)
T1 construct: human RIPK1 (1-375) gene; GST; made in house; host or cells: Sf-9 insect cells
T1 sequence (Q13546 1-375): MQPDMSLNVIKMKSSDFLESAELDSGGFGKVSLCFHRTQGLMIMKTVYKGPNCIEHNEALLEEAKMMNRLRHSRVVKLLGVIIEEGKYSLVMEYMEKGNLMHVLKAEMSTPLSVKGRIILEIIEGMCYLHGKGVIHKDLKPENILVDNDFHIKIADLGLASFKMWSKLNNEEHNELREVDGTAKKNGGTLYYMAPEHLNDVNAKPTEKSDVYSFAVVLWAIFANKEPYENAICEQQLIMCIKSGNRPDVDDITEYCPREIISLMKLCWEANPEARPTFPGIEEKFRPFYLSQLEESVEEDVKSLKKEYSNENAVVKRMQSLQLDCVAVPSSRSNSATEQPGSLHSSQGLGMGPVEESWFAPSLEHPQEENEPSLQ
Test: Human RIPK1 enzyme inhibitory effect (ADP-Glo Kinase Assay)
Type: biochemical
Details: well without enzyme = 100% inhibition; for inhibition at 10 µM: read-out: human RIPK1 enzyme inhibitory effect at 10 μM (% inhibition), 10 μM test compound; for human RIPK1 enzyme inhibitory effect at 10 μM (% inhibition): 10 μM test compound
Description: Experimental Example 1: Human RIPK1 Enzyme Inhibitory Effect
Enzyme was prepared by transducing human RIPK1 (1-375) gene to Sf-9 insect cells, and purifying using GST affinity column, and enzyme activity evaluation was performed using the enzyme. The enzyme was used after preservation at −70° C. The RIPK1 enzyme inhibitory activity of the test compound was measured using ADP-Glo™ Kinase Assay (Promega) according the following experiment methods. The test compound diluted with assay buffer (25 mM HEPES (pH 7.5), 10 mM MgCl2, 0.01% Tween-20, 2 mM DTT) was added to 384 well plate by each 2 μL. Next, RIPK1 enzyme solution diluted with the assay buffer was added thereto by each 2 μL, and the mixture was incubated at room temperature for 20 min. After the incubation, 0.6 mM ATP solution was added thereto by each 2 μL to initiate an enzyme reaction. The mixture was incubated at room temperature for 120 min, and ADP-Glo solution prepared according to Promega protocol was added to the 384 well plate by each 3 μL, and the reaction was performed at room temperature for 40 min. Then, Kinase-Detection solution was added to the 384 well plate by each 6 μL, and the reaction was performed at room temperature for 40 min. After the reaction, the luminescence intensity was measured by plate reader Envision (PerkinElmer).

inhibition at 10 µM [%]	human RIPK1 enzyme inhibitory effect at 10 μM (% inhibition) [%]	Compound
100		CN1C(=O)[C@@H](N2CCc3cn(Cc4ccccc4Cl)nc3C2=O)COc2ccccc21 [Example 25, (3S)-3-(2-(2-ohlorobenzy)-7-oxo-2,4,5,7-tetrahydro-6H-pyrazolo[3,4-c]pyridin-6-yl)-5-methyl-2,3-dihydro-1,5-benzoxazepin-4(5H)-one]
100		CN1C(=O)[C@@H](N2CCc3c(nn(Cc4ccccc4)c3Cl)C2=O)COc2cc(-c3nccn3C)ccc21 [Example 60, (3S)-3-(2-benzyl-3-chloro-7-oxo-2,4,5,7-tetrahydro-6H-pyrazolo[3,4-c]pyridin-6-yl)-5-methyl-8-(1-methyl-1H-imidazol-2-yl)-2,3-dihydro-1,5-benzoxazepin-4(5H)-one]
98		CN1C(=O)[C@@H](N2CCc3c(nn(Cc4ccccc4)c3OC(F)F)C2=O)COc2cc(Br)ccc21 [Example 123, (3S)-3-(2-benzyl-3-(difluoromethoxy)-7-oxo-2,4,5,7-tetrahydro-6H-pyrazolo[3,4-c]pyridin-6-yl)-8-bromo-5-methyl-2,3-dihydro-1,5-benzoxazepin-4(5H)-one]
101		CN1C(=O)[C@@H](N2CCc3c(nn(Cc4ccccc4)c3Cl)C2=O)COc2cc(Br)ccc21 [Example 58, (3S)-3-(2-benzyl-3-chloro-7-oxo-2,4,5,7-tetrahydro-6H-pyrazolo[3,4-c]pyridin-6-yl)-8-bromo-5-methyl-2,3-dihydro-1,5-benzoxazepin-4(5H)-one]
97		CN1C(=O)[C@@H](N2CCc3cn(CC4CCCOC4)nc3C2=O)COc2ccccc21 (stereo partly drawn) [Example 170, (3S)-5-methyl-3-(7-oxo-2-(tetrahydro-2H-pyran-3-ylmethyl)-2,4,5,7-tetrahydro-6H-pyrazolo[3,4-c]pyridin-6-yl)-2,3-dihydro-1,5-benzoxazepin-4(5H)-one]
96		CN1C(=O)[C@@H](N2CCc3cn(Cc4ncco4)nc3C2=O)COc2ccccc21 [Example 35, (3S)-5-methyl-3-(2-(1,3-oxazol-2-ylmethyl)-7-oxo-2,4,5,7-tetrahydro-6H-pyrazolo[3,4-c]pyridin-6-yl)-2,3-dihydro-1,5-benzoxazepin-4(5H)-one]
	100	CN1C(=O)C(N2CCc3c(nn(Cc4ccccc4)c3Cl)C2=O)CCc2ncccc21 (stereo not drawn) [Example 66, 7-(2-benzyl-3-chloro-7-oxo-2,4,5,7-tetrahydro-6H-pyrazolo[3,4-c]pyridin-6-yl)-5-methyl-5,7,8,9-tetrahydro-6H-pyrido[3,2-b]azepin-6-one (optical isomer)]
101		CN1C(=O)[C@@H](N2CCc3c(nn(Cc4ccccc4)c3Cl)C2=O)COc2cc(-c3ccn(C)n3)c(F)cc21 [Example 125, (3S)-3-(2-benzyl-3-chloro-7-oxo-2,4,5,7-tetrahydro-6H-pyrazolo[3,4-c]pyridin-6-yl)-7-fluoro-5-methyl-8-(1-methyl-1H-pyrazol-3-yl)-2,3-dihydro-1,5-benzoxazepin-4(5H)-one]
99		CN1C(=O)C(N2CCc3c(nn(Cc4ccccc4F)c3Cl)C2=O)CCc2cnccc21 (centres unmarked) [Example 105, 3-(3-chloro-2-(2-fluorobenzyl)-7-oxo-2,4,5,7-tetrahydro-6H-pyrazolo[3,4-c]pyridin-6-yl)-1-methyl-1,3,4,5-tetrahydro-2H-pyrido[4,3-b]azepin-2-one]
99		CN1C(=O)[C@@H](N2Cc3c(nn(Cc4ccccc4)c3Cl)C2=O)COc2ccccc21 [Example 78, (3S)-3-(2-benzyl-3-chloro-6-oxo-2,6-dihydropyrrolo[3,4-c]pyrazol-5(4H)-yl)-5-methyl-2.3-dihydro-1,5-benzoxazepin-4(5H)-one]
100		CNC(=O)c1ccc2c(c1)OC[C@H](N1CCc3c(nn(Cc4c(F)cccc4F)c3Cl)C1=O)C(=O)N2C [Example 46, (3S)-3-(3-chloro-2-(2,6-difluorobenzyl)-7-oxo-2,4,5,7-tetrahydro-6H-pyrazolo[3,4-c]pyridin-6-yl)-N,5-dimethyl-4-oxo-2,3,4,5-tetrahydro-1,5-benzoxazepine-8-carboxamide]
95		CN1C(=O)[C@@H](N2CCc3cn(Cc4ccc(F)cc4)nc3C2=O)COc2ccccc21 [Example 157, (3S)-3-(2-(4-fluorobenzyl)-7-oxo-2,4,5,7-tetrahydro-6H-pyrazolo[3,4-c]pyridin-6-yl)-5-methyl-2,3-dihydro-1,5-benzoxazepin-4(5H)-one]
99		CN1C(=O)[C@@H](N2CCc3cn(Cc4c(Cl)cccc4C#N)nc3C2=O)COc2ccccc21 [Example 165, 3-chloro-2-((6-((3S)-5-methyl-4-oxo-2,3,4,5-tetrahydro-1,5-benzoxazepin-3-yl)-7-oxo-4,5,6,7-tetrahydro-2H-pyrazolo[3,4-c]pyridin-2-yl)methyl)benzonitrile]
	100	CN1C(=O)C(N2CCc3c(nn(Cc4ccccc4)c3Cl)C2=O)CCc2cccnc21 (centres unmarked) [Example 91, 7-(2-benzyl-3-chloro-7-oxo-2,4,5,7-tetrahydro-6H-pyrazolo[3,4-c]pyridin-6-yl)-9-methyl-5,6,7,9-tetrahydro-8H-pyrido[2,3-b]azepin-8-one]
100		CCNC(=O)c1ccc2c(c1)OC[C@H](N1CCc3c(nn(Cc4ccccc4)c3Cl)C1=O)C(=O)N2C [Example 147, (3S)-3-(2-benzyl-3-chloro-7-oxo-2,4,5,7-tetrahydro-6H-pyrazolo[3,4-c]pyridin-6-yl)-N-ethyl-5-methyl-4-oxo-2,3,4,5-tetrahydro-1,5-benzoxazepine-8-carboxamide]
86		CN1C(=O)[C@@H](N2CCc3cn(Cc4ncccn4)nc3C2=O)COc2ccccc21 [Example 36, (3S)-5-methyl-3-(7-oxo-2-(pyrimidin-2-ylmethyl)-2,4,5,7-tetrahydro-6H-pyrazolo[3,4-c]pyridin-6-yl)-2,3-dihydro-1,5-benzoxazepin-4(5H)-one]
100		CN1C(=O)[C@@H](N2CCc3c(nn(Cc4ccccc4)c3Cl)C2=O)COc2cc(-c3ncco3)ccc21 [Example 139, (3S)-3-(2-benzyl-3-chloro-7-oxo-2,4,5,7-tetrahydro-6H-pyrazolo[3,4-c]pyridin-6-yl)-5-methyl-8-(1,3-oxazol-2-yl)-2,3-dihydro-1,5-benzoxazepin-4(5H)-one]
100		Cc1c2c(nn1Cc1ccccc1F)C(=O)N([C@H]1COc3cc(C#N)ccc3N(C)C1=O)CC2 [Example 112, (3S)-3-(2-(2-fluorobenzyl)-3-methyl-7-oxo-2,4,5,7-tetrahydro-6H-pyrazolo[3,4-c]pyridin-6-yl)-5-methyl-4-oxo-2,3,4,5-tetrahydro-1,5-benzoxazepine-8-carbonitrile]
	100	CN1C(=O)C(N2CCc3c(nn(Cc4c(F)cccc4F)c3Cl)C2=O)CCc2c1cnn2C (centres unmarked) [Example 133, 6-(3-chloro-2-(2,6-difluorobenzyl)-7-oxo-2,4,5,7-tetrahydro-6H-pyrazolo[3,4-c]pyridin-6-yl)-1,4-dimethyl-4,6,7,8-tetrahydropyrazolo[4,3-b]azepin-5(1H)-one]
99		CN1C(=O)[C@@H](N2CCc3cn(Cc4ccc(C#N)cc4F)nc3C2=O)COc2ccccc21 [Example 162, 3-fluoro-4-((6-((3S)-5-methyl-4-oxo-2,3,4,5-tetrahydro-1,5-benzoxazepin-3-yl)-7-oxo-4,5,6,7-tetrahydro-2H-pyrazolo[3,4-c]pyridin-2-yl)methyl)benzonitrile]
	99	CN1C(=O)C(N2CCc3c(nn(Cc4ccccc4)c3Cl)C2=O)CCc2ncccc21 (centres unmarked) [Example 65, 7-(2-benzyl-3-chloro-7-oxo-2,4,5,7-tetrahydro-6H-pyrazolo[3,4-c]pyridin-6-yl)-5-methyl-5,7,8,9-tetrahydro-6H-pyrido[3,2-b]azepin-6-one]
91		CN1C(=O)[C@@H](N2CCc3cn(CCc4ccccc4)nc3C2=O)COc2ccccc21 [Example 23, (3S)-5-methyl-3-(7-oxo-2-(2-phenylethyl)-2,4,5,7-tetrahydro-6H-pyrazolo[3,4-c]pyridin-6-yl)-2,3-dihydro-1,5-benzoxazepin-4(5H)-one]
93		CN1C(=O)[C@@H](N2CCc3cn(CC4CC4)nc3C2=O)COc2ccccc21 [Example 27, (3S)-3-(2-(cyclopropylmethyl)-7-oxo-2,4,5,7-hydro-6H-pyrazolo[3,4-c]pyridin-6-yl)-5-methyl-2,3-dihydro-1,5-benzoxazepin-4(5H)-one]
